# Measured values reported in the supplement of paper PMC3937590.
# How the values were obtained:
# Assay in all cases: -log10 GI50 (growth inhibition 50%) (-log10(M)); higher = more potent growth inhibition
# MDAMB231 = test system: MDAMB231
# Summary of the method: (§1)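 A value carrying a < qualifier equals the top dose tested. Each compound was tested in triplicate on breast cancer cell lines for 72 hours at nine doses in 1:5 serial dilution, using a luminescence read-out against a time-zero plate. Nonlinear least squares fitting of a Gompertz curve gave GI50, the molar concentration causing the set level of growth inhibition, which is reported as its negative logarithm. The logarithm is base 10.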
# SUM225CWN = test system: SUM225CWN
# Summary of the method: as §1
# 184B5 = test system: 184B5
# Summary of the method: as §1
# HCC3153 = test system: HCC3153
# Summary of the method: as §1
# HCC1187 = test system: HCC1187
# Summary of the method: as §1
# MDAMB134VI = test system: MDAMB134VI
# Summary of the method: as §1
# MDAMB415 = test system: MDAMB415
# Summary of the method: as §1
# HCC70 = test system: HCC70
# Summary of the method: as §1
# HS578T = test system: HS578T
# Summary of the method: as §1
# MCF10A = test system: MCF10A
# Summary of the method: as §1
# BT474 = test system: BT474
# Summary of the method: as §1
# MDAMB157 = test system: MDAMB157
# Summary of the method: as §1
# MCF12A = test system: MCF12A
# Summary of the method: as §1
# HCC1954 = test system: HCC1954
# Summary of the method: as §1
# MCF7 = test system: MCF7
# Summary of the method: as §1
# 184A1 = test system: 184A1
# Summary of the method: as §1
# BT20 = test system: BT20
# Summary of the method: as §1
# HCC38 = test system: HCC38
# Summary of the method: as §1
# BT549 = test system: BT549
# Summary of the method: as §1
# HCC1806 = test system: HCC1806
# Summary of the method: as §1
-log10 GI50 (MDAMB231),-log10 GI50 (HCC3153),-log10 GI50 (HCC1187),-log10 GI50 (MDAMB134VI),-log10 GI50 (MDAMB415),-log10 GI50 (BT474),-log10 GI50 (MDAMB157),-log10 GI50 (HCC1954),-log10 GI50 (MCF7),-log10 GI50 (BT20),-log10 GI50 (HCC38),-log10 GI50 (BT549),-log10 GI50 (HCC1806),Structure (SMILES),-log10 GI50 (SUM225CWN),-log10 GI50 (184B5),-log10 GI50 (HCC70),-log10 GI50 (HS578T),-log10 GI50 (MCF10A),-log10 GI50 (MCF12A),-log10 GI50 (184A1)
5.53,5.38,7.1,5.3,5.18,5.22,6.1,5.16,5.71,5.9,6.2,5.47,5.55,CC(=O)NCC(=O)N1[C@@H]2CC[C@H]1c1ccc(Nc3ncc(C(F)(F)F)c(NC4CCC4)n3)cc12,5.05,5.48,5.38,6.05,6.36,5.59,5.66
< 4.18,4.37,5.48,4.33,4.9,4.37,4.88,4.84,4.49,4.76,< 4.18,< 4.18,< 4.18,CCC[C@H](N[C@H]1CCc2cc(F)cc(F)c2C1)C(=O)Nc1cn(C(C)(C)CNCC(C)(C)C)cn1,4.84,4.86,5.63,4.51,< 4.18,< 4.18,5.87
4.67,6.72,6.15,6.38,6.63,6.02,6.97,6.57,6.33,6.66,6.81,6.53,6.71,CCNCCCCNCCCCNCCCCNCCCCNC/C=C/CNCCCCNCCCCNCCCCNCCCCNCC,5.49,5.62,6.55,4.93,5.9,6.2,6.32
5.32,5.39,5.65,4.96,5.32,5.08,5.06,5.06,6,4.86,5,5.21,4.09,CNC(=O)c1c(F)cccc1Nc1nc(Nc2cc3c(cc2OC)CCN3C(=O)CN(C)C)nc2[nH]ccc12,4.9,6.32,5.18,4.91,5.45,5.74,6.4
< 4.3,< 4,6.39,5.03,5.45,4.29,5.66,< 4.48,< 4.48,5.33,6.21,5.47,< 4,COc1cc2c(Nc3ccc(NC(=O)c4ccccc4)cc3)ncnc2cc1OCCCN1CCOCC1,4.98,< 4.3,5.85,5.88,< 4.48,5.12,< 4.3
6.35,4.87,8.01,6.8,7.08,6.91,6.13,6.88,7.39,5.44,6.51,6.38,6.43,COc1ccc(-c2cc3c(C)nc(N)nc3n([C@H]3CC[C@H](OCCO)CC3)c2=O)cn1,6.79,6.65,7.31,5.26,6.69,6.39,6.96
6.37,7.38,8.3,7.97,5.86,8.36,6.51,8.04,8.14,7.8,7.61,7.32,7.54,COc1ncc(-c2ccc3nccc(-c4ccnnc4)c3c2)cc1NS(=O)(=O)c1ccc(F)cc1F,8.79,8.23,8.13,7.13,8.1,8.09,8.77
5.47,5.16,7.24,5.57,5.69,5.11,5.71,5.45,5.91,5.42,5.63,5.44,6.11,C[C@@H](Oc1cc(-c2cnn(C3CCNCC3)c2)cnc1N)c1c(Cl)ccc(F)c1Cl,–,5.42,5.46,5.85,5.59,5.38,5.78
5.09,6.12,8.02,5.2,7.24,7.16,5.22,–,6.91,5.25,5.99,5.45,5.25,Cn1ncc(Cl)c1-c1cc(C(=O)N[C@H](CN)Cc2ccc(F)c(F)c2)oc1Cl,6.88,–,8.68,5.58,5.03,5.57,–
–,< 4.48,4.7,< 4,< 4,4.69,< 4,< 4.48,< 4.48,4.55,4.24,< 4,–,Nc1[nH]nc2nnc(-c3c(-c4ccccc4)nn4ccccc34)cc12,4.62,4.89,4.54,< 4.48,< 4.48,< 4,4.61
5.14,5.64,5.73,5.22,5.59,5.56,5.87,5.22,5.43,5.49,5.64,5.8,5.61,O=C1C(Cl)=C(NCCN2CCOCC2)C(=O)c2ncccc21,5.64,5.57,5.52,5.7,5.65,5.76,5.82
< 4.48,< 4.18,5.77,4.48,< 4.48,5.41,< 4.48,5.46,4.8,4.93,< 4.18,< 4.48,5.25,O=C1NC(=O)/C(=C/c2ccc(-c3ccc(F)cc3O)o2)S1,5.47,4.65,4.67,5.06,< 4.18,4.68,5.43
4.87,< 4.48,5.07,4.85,4.59,4.79,4.88,< 4.48,< 4.48,4.62,4.77,< 4.48,4.9,Oc1cc(-c2nc(-c3ccccc3)[nH]c2-c2ccncc2)ccc1Cl,5.15,5.45,4.49,4.69,4.92,4.97,5.06
< 4.48,6.19,< 4.48,< 4.48,6.79,6.65,6.55,7.28,< 4.48,5.6,< 4.48,< 4.48,< 4.48,Cn1c(=O)n(-c2ccc(C(C)(C)C#N)cc2)c2c3cc(-c4cnc5ccccc5c4)ccc3ncc21 [BEZ235],6.68,–,6.8,< 4.48,7.26,6.33,7.19
5.51,–,–,5.44,5.86,8.23,5.61,6.91,–,5.56,5.74,5.87,6.27,CN(C)C/C=C/C(=O)Nc1cc2c(Nc3ccc(F)c(Cl)c3)ncnc2cc1O[C@H]1CCOC1 [BIBW2992],8.03,7.22,6.33,–,7.49,7.06,7.74
4.27,4.85,–,7.27,8.12,7.52,4.63,–,6.46,–,6.25,6.88,4.61,CO[C@H]1C[C@@H]2CC[C@@H](C)[C@@](O)(O2)C(=O)C(=O)N2CCCC[C@H]2C(=O)O[C@H]([C@H](C)C[C@@H]2CC[C@@H](OCCO)[C@H](OC)C2)CC(=O)[C@H](C)/C=C(\C)[C@@H](O)[C@@H](OC)C(=O)[C@H](C)C[C@H](C)/C=C/C=C/C=C/1C [Everolimus],7.62,5.55,6.96,–,6.08,4.87,6.16
< 4.78,< 4.78,< 4.78,< 4.78,< 4.78,6.4,< 4.78,5.58,< 4.78,< 4.78,< 4.78,< 4.78,< 4.78,CS(=O)(=O)CCNCc1ccc(-c2ccc3ncnc(Nc4ccc(OCc5cccc(F)c5)c(Cl)c4)c3c2)o1 [Lapatinib],6.16,5.24,5.4,< 4.78,< 4.78,–,5.86
6.59,6.84,7.1,6.63,7.08,6.75,6.76,–,6.47,6.37,6.6,7.04,6.5,CC(C)C[C@@H](C=O)NC(=O)[C@H](CC(C)C)NC(=O)[C@H](CC(C)C)NC(=O)OCc1ccccc1 [MG-132],7.01,7.79,7.19,6.64,7.21,7.32,7.73
6.46,6.69,5.4,–,6.28,6.5,6.3,6.82,6.22,6.19,6.48,6.3,6.5,COC(=O)Nc1nc2cc(C(=O)c3ccccc3)ccc2[nH]1 [Mebendazole],–,< 4.18,6.86,6.46,5.5,5.74,< 4.18
–,4.8,5.11,4.74,4.58,4.79,4.26,4.34,4.63,–,5.03,4.6,4.81,NS(=O)(=O)c1ccc(Nc2nc(OCC3CCCCC3)c3[nH]cnc3n2)cc1 [NU6102],4.3,5.39,4.71,4.69,5.32,4.8,5.22
4.91,5.21,4.85,5.06,5.25,4.9,5.09,5.01,4.8,5.16,4.78,4.99,5.11,Cc1c(O)cccc1C(=O)N[C@@H](CSc1ccccc1)[C@H](O)CN1C[C@H]2CCCC[C@H]2C[C@H]1C(=O)NC(C)(C)C [Nelfinavir],–,5.33,4.75,5.07,4.9,4.64,5.48
